Source: ChEMBL document CHEMBL3507680, “University of Dundee, Gates Library screen for HepG2 cell viability”

Experiment: Human HepG2 cell viability assay in 384 well format
Format: toxicity, cell-based
Design: dose 125 nL, time 70.5 hour; cytotoxicity at 70.5 h: concentration not given beside the values
Conditions: HepG2 cells, read-out: Inhibition

| SMILES | cytotoxicity at 70.5 h [%] |
| --- | --- |
| COc1cc(CSc2nnc(N)n2C2CC2)ccc1SC | -5.1 |
| O=c1ccc2c([nH]1)CCN(S(=O)(=O)c1ccc3c(c1)OCCO3)C2 | 1.39 |
| O=C(CCn1ccc2ccc(Br)cc21)/N=c1\[nH]nc(C2CCCO2)s1 (centres undefined) | -14.5 |
| Cc1csc(CNC(=O)N(C)Cc2ccncc2)n1 | -0.603 |
| CCC(C)N1CCC2(CC1)CN(c1cncnc1)C(=O)CO2 (centres undefined) | -15.3 |
| CCC(C)C(=O)NCc1cccc(OCCN(C)C2CCOCC2)c1 (centres undefined) | 16.4 |
| COCc1noc(Cc2c(C)nn(C)c2C)n1 | -2.81 |
| CN1CCN(C(=O)NC2CC2)Cc2cccnc21 | 0.459 |
| O=C1CC(NCc2cnc(C3CCCCC3)nc2)CN1c1ccccc1 (centres undefined) | 13.8 |
| N#Cc1cccc(SCCS(N)(=O)=O)c1 | -6.9 |
| NC(=O)C1CCN(CCc2ccc(NCc3ccoc3)cc2)CC1 | -5.59 |
| O=C1CNc2ncnc(Nc3cnn(Cc4cccc(F)c4)c3)c2N1 | -16.6 |
| Fc1cc(CN2CCOC3(CCOCC3)C2)ccc1OC(F)F | -3.49 |
| Cc1ccc(CC(=O)N2CCC(c3nnc4n3CCC4)CC2)cc1 | -8.21 |
| CCN1CCN(C2CCN(Cc3noc(C4CC4)n3)CC2)C1=O | -3.61 |
| OC[C@H]1CCN(Cc2ccc3ccccc3n2)C[C@@H]1O | -4.84 |
| CN(C)c1cccc(C2CCCN2c2nc3c(cnn3C)c(=O)[nH]2)c1 (centres undefined) | 15.4 |
| COCC1CN(CC2CC2)Cc2nn(CC3CC3)cc21 (centres undefined) | 12.3 |
| Cc1csc(CCNC(=O)C2CCN(CC(N)=O)CC2)n1 | 8.97 |
| O=C(COc1coc(CN2CCOCC2)cc1=O)Nc1ccc(Cl)cc1 | -17.6 |
| CCCC(=O)N(CCCN1CCOCC1)c1nc2c(Cl)cccc2s1 | 1.41 |
| NS(=O)(=O)c1ccc(N2CCN(CCCc3cn[nH]c3)CC2)cc1 | 15.8 |
| CC[C@H]1CN2CC[C@H]1C[C@@H]2CNC(=O)Nc1cccc(C(F)(F)F)c1 | -3.6 |

| SMILES | cytotoxicity at 70.5 h [%] |
| --- | --- |
| COc1ccc(Br)cc1CCC(=O)N1CCCC1 | -0.161 |
| Cc1cc(CC(=O)N(C)Cc2cccc(OC(C)C)c2)n[nH]1 | -9.38 |
| O=c1cc(Cn2cncn2)nc2n1CCCN(CC1CCOCC1)C2 | -3.57 |
| CC(NC(=O)c1ccc(C(N)=O)cc1)c1cccc(N2CCOC2=O)c1 (centres undefined) | 0.0239 |
| Fc1ccc(-c2nnc(CNC3CCc4ncnn4C3)o2)cc1 (centres undefined) | -12.1 |
| O=c1cc2c(nn1CN1CCSCC1)CCC2 | -19.6 |
| COCCN1C[C@H]2CC[C@@H]1CN(C(=O)CCc1c(C)nn(C)c1C)C2 | -3.68 |
| c1ccc(-c2nc(CCNCc3cccnc3)co2)cc1 | -4.67 |
| Cc1ccc(CN(CCN(C)C)C(=O)Nc2cc(C(N)=O)ccc2C)s1 | 21.3 |
| CC(C)COc1cncc(N(C)C2CCN(c3ncccn3)CC2)n1 | -12 |
| O=C(CCCn1ccnc1)NC1CCCN(c2ccccc2Cl)C1 (centres undefined) | -18 |
| Cn1ccc(CN2CC(Cc3nccc4cc[nH]c34)C2)n1 | -4.79 |
| Cc1cncc(C2CCCN(C(=O)c3ccc(C)[nH]c3=O)C2)n1 (centres undefined) | -4.5 |
| CCC(C)(C)NC(=O)c1ncn2c1CN(C)S(=O)(=O)c1ccccc1-2 | 20.8 |
| CC(c1ccc(Cl)cc1)N1CCN(CCNS(C)(=O)=O)CC1 (centres undefined) | -0.037 |
| O=C(NCc1ccon1)Nc1cc(F)ccc1N1CCCCC1 | 0.987 |
| Cn1ccnc1N1CCN(C(=O)Cc2ccccc2)CC1 | -8.11 |
| CC(C)N(C)Cc1ncn2c1CN(C(=O)C1CCCO1)CCC2 (centres undefined) | -0.921 |
| CN(C)C(=O)C1CCN(C(=O)c2c[nH]c3cc(Cl)ccc23)CC1 | -8.29 |
| Cc1cc(CN2C[C@@H]3CCCO[C@@H]3[C@H](NS(C)(=O)=O)C2)no1 | -1.78 |
| Cc1ncc2c(n1)CN(Cc1ncc(C(C)(C)C)o1)CC2 | -13.9 |
| CC(C)C1CN(Cc2cnc(N(C)C)nc2)CCCN1CC1CC1 (centres undefined) | -10 |
| N#Cc1c(Cl)nsc1NCC1(c2ccccc2)CCC1 | 17.1 |

| SMILES | cytotoxicity at 70.5 h [%] |
| --- | --- |
| O=C(NC[C@H]1OC[C@@H]2CCN(Cc3ccco3)C[C@@H]21)c1ccsc1 | -5.61 |
| Cc1nc[nH]c1-c1nccn1CCN1CCCOC1=O | -5.03 |
| CC(c1ccncc1)N(C)S(C)(=O)=O (centres undefined) | -5.4 |
| N#Cc1cccc(CS(=O)(=O)NC(Cc2ccccc2)C(N)=O)c1 (centres undefined) | -13.1 |
| O=S(=O)(c1ccc(-c2cnco2)cc1)N1CCC2(CCCNC2)C1 (centres undefined) | -1.83 |
| COCCCNC(=O)CCn1ncc2c(Cl)cccc21 | -7.64 |
| Cc1n[nH]cc1CNC(=O)CCCc1cccs1 | -3.35 |
| Cc1c(C(=O)N2CC(Cc3nccc4ccn(C)c34)C2)cnn1C | -6.29 |
| CN(C)c1ccc(CN(CC2CCCO2)C(=O)c2csnn2)cc1 (centres undefined) | -14.8 |
| CCCc1nc(CN2CCCCC2Cn2cncn2)cs1 (centres undefined) | -7.91 |
| CN(C)C(=O)c1cnc2n1CCN(Cc1cccc(C#N)c1)C2 | -7.44 |
| CC(Cn1ccnc1)NC(=O)NCCc1ccc2c(c1)OCCO2 (centres undefined) | 13.3 |
| CCCc1nnsc1C(=O)N1CCN(CC(O)c2ccco2)CC1 (centres undefined) | -0.0412 |
| CN1CCC(N2Cc3nc(N)ncc3C2=O)CC1 | -11.6 |
| CCn1ccnc1CN1CCN(C(C)C(=O)N2CCCCCC2)CC1 (centres undefined) | -1.03 |
| CSc1ccc(C(=O)N2CC(=O)N(CC(C)(C)C)CC(O)C2)cc1 (centres undefined) | -0.234 |
| N#Cc1cccc(S(=O)(=O)NC2CCN(Cc3ccccc3)C2=O)c1 (centres undefined) | -2.45 |
| COc1cc(OC)cc(N2CCC(NCc3occc3C)C2=O)c1 (centres undefined) | 31 |
| Cc1cc(C2CCCN(Cc3cccnc3)C2)n[nH]1 (centres undefined) | 47.5 |
| CCOC(=O)N1CCN(C(=O)C2Cc3ccccc3CN2C)CC1 (centres undefined) | 2.75 |
| Cc1ccc(C(=O)N2CCc3c(CNc4ncccn4)cncc3C2)o1 | -10.9 |
| CCC1CN(C)c2ccccc2CN1C(=O)Nc1ccc(C)cc1 (centres undefined) | -2.3 |
| Cc1nc2c(c(=O)n1C)CCN(Cc1cc3ccccc3[nH]1)CC2 | 0.793 |

| SMILES | cytotoxicity at 70.5 h [%] |
| --- | --- |
| O=C(CCC(F)(F)F)N1CCCC2(CCC(=O)N(CC3CC3)C2)C1 (centres undefined) | -15.8 |
| COCCNC(=O)NC(=O)CNc1c(F)cccc1N1CCCC1 | -16.6 |
| O=C1NCCN(C(=O)c2cn3ccsc3n2)C1c1cccc(F)c1 (centres undefined) | 25.9 |
| Cc1cc2c(cc1NC(N)=O)OCO2 | -4.79 |
| CC(C)Nc1nc(O)cc(C2CC(=O)N(Cc3ccccc3)C2)n1 (centres undefined) | -7.01 |
| CC(C)Nc1ncc(CN2C[C@@H](CN3CCC(O)CC3)[C@@H](CO)C2)cn1 | -3.95 |
| O=C(NCC(Cc1cccc(F)c1)N1CCCC1=O)c1ccccc1 (centres undefined) | 4.11 |
| CNC(=O)COC1COC2(CCN(c3ccc(C)nn3)CC2)C1 (centres undefined) | 0.115 |
| CCC(=O)NC(CC)c1ccccc1C (centres undefined) | -5.25 |
| OCCOc1cc(F)ccc1NCc1cccc(F)c1F | 1.35 |
| Cc1cccc(C2CCCN(S(=O)(=O)c3cccnc3)C2)n1 (centres undefined) | -2.36 |
| Cc1nc(C)n(CCC(=O)NCC2CCCOC2)n1 (centres undefined) | -0.994 |
| CC(C)c1cc(C(=O)N2C[C@H]3CC[C@@H]2CN(Cc2cccnc2)C3)no1 | -12.5 |
| COc1ccc(CN2C[C@@H]3CCCO[C@@H]3[C@H](NC(=O)CC3CC3)C2)cc1 | 3.18 |
| CN(C)c1ncccc1C(=O)N1CCCN(c2cccnn2)CC1 | -6.59 |
| CNc1nc(C(=O)N2CCCn3nc(C(=O)N4CCCC4)cc3C2)cs1 | -11.2 |
| CCC1=N[C@@]2(CC[C@@H]3CN(C(=O)NCc4cccc(F)c4)C[C@@H]32)C(=O)N1 | -5.99 |
| Cc1nc(NC(C)C)nc2c1CN(Cc1cccs1)CC2 | 22.9 |
| Cn1ccnc1CN1CCCC(CO)(CCc2ccccc2)C1 (centres undefined) | -8.1 |
| O=C(N1CCOCC1)N1CCN(c2ccnc3ccsc23)CC1 | 39.2 |
| COCc1nc(C(=O)NS(=O)(=O)c2cc(Br)ccc2C)cs1 | 1.93 |
| O=C(NCCc1ccco1)Nc1cc(C(F)(F)F)c[nH]c1=O | -0.302 |
| CC(O)(CNS(=O)(=O)Cc1ccon1)c1ccsc1 (centres undefined) | 0.988 |

| SMILES | cytotoxicity at 70.5 h [%] |
| --- | --- |
| CCNC(=O)N(C)C1CCN(Cc2ncc(C)c(OC)c2C)CC1 | -8 |
| O=C(NCCc1cccc(O)c1)NC1CCN(c2ccccc2)C1=O (centres undefined) | 1.16 |
| COc1ccc(CN2CCc3nnc(COCCN(C)C)n3CC2)cc1 | -17.3 |
| COCCC(=O)N1CCCC1c1csc(Nc2ncccn2)n1 (centres undefined) | -7.18 |
| Cc1c[nH]c(CN(C)C(=O)c2ccc(CSc3nnc[nH]3)o2)n1 | -1.05 |
| Cc1cc(C)nc(N2CCC(C(=O)Nc3n[nH]c(C(C)C)n3)CC2)n1 | -11.5 |
| Cc1cccc(-c2nc(C)nn2CC(=O)NCC(C)C)c1 | 5.13 |
| COCc1ccc(C(=O)N2CC[C@H](O)[C@@H](n3ccnc3)CC2)cc1 | -6.05 |
| CCOC(=O)CN1CCC2(CC1)CC(=O)c1ccc(OC)cc1O2 | 2.89 |
| CCN(C(=O)Cn1cc(Cl)cn1)c1ccccc1 | 5.93 |
| CSCC(CCO)NC(=O)Nc1ccc(Br)cc1 (centres undefined) | -11.8 |
| COCC(=O)N1C[C@H]2CNC[C@@]2(C(=O)NCc2c(C)noc2C)C1 | -0.367 |
| N#Cc1ncn(CCS(=O)(=O)c2ccc(Cl)cc2)n1 | 2.53 |
| Cc1cc(=O)n2nc(Oc3ccc(C#N)cc3Cl)sc2n1 | -28 |
| Cc1noc(C(C)C)c1C(=O)NCC(c1ccccc1)N(C)C (centres undefined) | -8.37 |
| O=C(Nc1cnc2n1CCCC2)C1CCNCC1 | 26.5 |
| CC(C)N(CC(N)=O)Cc1csc(COc2ccc(F)cc2)n1 | 43.4 |
| O=C(NCCC(=O)N1CCCc2ccccc21)c1cc(F)cc(F)c1 | -7.42 |
| CC(C)(C)n1ncc2c1NC(=O)CC2c1cccc(O)c1 (centres undefined) | -4.31 |
| CS(=O)(=O)c1snnc1C1CCN(Cc2cccc(O)c2)CC1 | -7.7 |
| COC(=O)c1ccc(F)c(Cn2nc(C)cc2C)c1 | 4.73 |
| Cc1ccc(S(=O)(=O)N2CCc3ccc(F)cc32)cc1C(=O)O | -6.54 |
